The text below walks through data of article PMC11267363, “Supramolecular Nanofibers Ameliorate Bleomycin‐Induced Pulmonary Fibrosis by Restoring Autophagy” (Advanced Science, 2024).

In test [1] the test system is autophagic flux in activated MRC-5 cells. The test can be described thus: Autophagic flux (LC3-II:LC3-I, p62 western blot; mRFP-GFP-LC3 live-cell imaging). It counts as cell-based, human. The note with it: TGF-β1 10 ng/mL, peptide 50 µM, 24 h. As to the method:
According to the manufacturer's instructions, MRC-5 cells were infected with mRFP-GFP-LC3 adenoviral particles. After infection, the cells were cultured for another 24 h and seeded on a CLSM dish at a density of 5 × 10^4 cells. After adherence, the cells were treated with 0 or 10 ng mL^-1 TGF-β1 for 24 h. On the other hand, in order to detect whether peptide could regulate the autophagic flux, the stable infected MRC-5 cells were seeded on a CLSM dish at a density of 5 × 10^4 cells. After adherence, the cells were treated with saline, Ac-GFFY-A2 (50 μM) or A2 (50 μM) plus TGF-β1 (10 ng mL^-1) for 24 h. The cells solely treated by saline as control group. Discarding the medium and washing the cells with cold PBS buffer. The autophagic flux was detected by Live Cell Imaging Microscopy (Leica TCS SP5). page 18: […] -3' and [NT]. […] The autophagic flux was detected by Live Cell Imaging Microscopy (Leica TCS SP5). […] The protein concentration was measured using BCA Protein Assay Kit (Thermo Scientific). […] The protein transferred PVDF membranes were incubated with following primary antibodies at 4°C overnight: Then the membranes were incubated with horseradish peroxidase (HRP)-conjugated secondary antibodies at room temperature for 1 h, and protein signals were detected using an enhanced chemiluminescence kit (Pierce). […] The co -precipitates were resolved using SDS-PAGE and detected with immunoblotting. […]
(In general: In western blotting, separated proteins are transferred to a membrane and probed.)

Test [2] deals with MRC-5 cells. The test can be described thus: Western blot of α-SMA, Col 1 and fibronectin in TGF-β1 treated MRC-5 cells. The note with it: MRC-5 cells treated with TGF-β1, western blot, n = 3. It counts as cell-based, human. An excerpt:
The progression of pulmonary fibrosis is closely associated with impaired autophagic flux by promoting the differentiation of fibroblast into myofibroblast. Given that Ac‐GFFY‐A2 peptide nanofibers have ability to restore the impaired autophagy, we proceeded to investigate their potential anti‐fibrotic effect. Fibroblasts and myofibroblasts are activated after tissue injury and in IPF patients, leading to increased ECM production and enhanced fibroblast migratory capacity.
Western blot analysis and co-immunoprecipitation
Total proteins were exacted from cells or tissues with RIPA lysis buffer (Beyotime Biotecnology). The protein concentration was measured using BCA Protein Assay Kit (Thermo Scientific). Equal amounts of lysates were resolved by SDS–PAGE. The protein transferred PVDF membranes were incubated with following primary antibodies at 4°C overnight: Then the membranes were incubated with horseradish peroxidase (HRP)-conjugated secondary antibodies at room temperature for 1 h, and protein signals were detected using an enhanced chemiluminescence kit (Pierce). […] The co -precipitates were resolved using SDS–PAGE and detected with immunoblotting. […]
The mice were then intravenously injected with 200 μL of sulfo-Cy5 labeled peptide (0.3 mg per mouse). Fluorescence imaging was performed using a IVIS Lumina II imaging (PerkinElmer, USA) at different time point post injection. […]

Ends that are not written are not given here.

As for Ac-GFFYGGWLTRLLQTK-OH [Ac-GFFY-A2], in test [1], the autophagic flux entry is “restoration of autophagic flux”. The “protein expression of α-SMA, col 1 and fibronectin” value in test [2] was “remarkably reduced”.
Consider GGWLTRLLQTK-OH [A2, reference compound], for which the autophagic flux result in test [1] is “barely increased”. The “protein expression of α-SMA, col 1 and fibronectin” value in test [2] is on record as “hardly inhibited fibroblast to myofibroblast differentiation”.
